In one test the target is Erk2 (Homo sapiens, UniProt P28482). Nature of the test: Cell-free kinase assay (ALPHA technology), Erk2. It is filed as biochemical. To be noted: 10 μM ATP. A digest of the protocol:
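Recombinant tagged Erk2 kinase reactions were stopped with ALPHA bead mix […]. The signal was read after standing overnight. Controls were run in eight replicates and compounds in duplicate, and IC50 was fitted.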

Another test concerns the target PI3Kalpha (Homo sapiens (Human), UniProt P42336). Nature of the test: Cell-free kinase assay (ALPHA technology), PI3Kalpha. It is filed as biochemical. Conditions: 100 μM ATP. Put shortly:
(§1)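 Recombinant human GST- or His-tagged kinases were assayed for 1 h with ALPHA bead detection read after overnight standing. For PI3Kalpha: 1 ng enzyme, 100 μM ATP, 20 μM PIP2 in Hepes pH 7.4, detected by GST:Grp1/biotin-PIP3 competition. The p38alpha and Jnk assays followed the MAPK format (10 μM ATP, biotin-MBP, anti-phospho-MBP); IC50 from %-inhibition.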

Another test has as its target p38alpha (Homo sapiens (Human), UniProt Q16539). Description: Cell-free kinase assay (ALPHA technology), p38alpha. It is filed as biochemical. Conditions: 10 μM ATP.
Another test deals with Jnk1 + Jnk2. Description: Cell-free kinase assay (ALPHA technology), Jnk1 + Jnk2. It is filed as biochemical, human. To be noted: 10 μM ATP. Put shortly: as §1
The next test concerns BxPC3. Nature of the test: XTT assay, anti-proliferative effect, BxPC3. It is filed as cell-based. Conditions: Homo sapiens, BXPC-3; 45 h incubation. The protocol:
(§2) The principle of this test is based on the intracellular reduction of the tetrazolium dye XTT (sodium 3′-[1-(phenylaminocarbonyl)-3,4-tetrazolium]-bis(4-methoxy-6-nitro)benzene sulfonic acid, Sigma) to a formazan dye by mitochondrial dehydrogenases. The dye is only formed by metabolically active cells and its photometrically measurable intensity is a quantitative indicator for the presence of living cells. The reduction of dye formation by incubation of the cells with substances serves as a parameter for the anti-proliferative effect.
(§3) The tumour cell lines (ATCC) were injected into 96-well microtitre plates in a defined cell number (5000 cells/well for BxPC3 and Hct116; 10000 cells/well for MDA MB468) and then incubated overnight in an incubator at 37° C., 5% CO2 and 95% air humidity. The test substances were prepared as stock solutions (10 mM) in DMSO. […] The cell plates were then incubated for 45 h in an incubator at 37° C., 5% CO2 and 95% air humidity.
(§4) For the detection reaction the substrate XTT was mixed with PMS (N-Methyl dibenzopyrazine methylsulfate, Sigma) and added to the cells so that a final concentration of 325 μg XTT/ml and 2.5 μg PMS/ml was obtained. It was then incubated for 3 h at 37° C., 95% air humidity. The formazan salt formed by the cellular dehydrogenases could then be quantified by adsorption at 490 nm.
(§5) The % inhibition value was evaluated by means of the following formula from the values for the optical densities measured in each case at 490 nm:
(§6) Eight determinations were made for each control and two for the substance samples. The 0% control contains no cells, the 100% control (proliferation control) contains no test substance. The EC50 values were determined using GraphPadPrism.

The test system of another test is MDA-MB468. Nature of the test: XTT assay, anti-proliferative effect, MDA-MB468. It is filed as cell-based. Conditions: Homo sapiens, MDA-MB-468; 45 h incubation. Here is the method:
as §2, §3, §4, §5, §6

For another test, the system named is Hct116. Nature of the test: XTT assay, anti-proliferative effect, Hct116. It is filed as cell-based. Conditions: Homo sapiens, HCT-116; 45 h incubation. The protocol: as §2, §3, §4, §5, §6
In the next test the test system is Erk → pRsk. Nature of the test: Cellular substrate phosphorylation (Western Blotting), Erk substrate pRsk. It is filed as cell-based. Here is the method: (§7) This method can be used to predict whether the kinase modulator under study also achieves the desired effect in a cellular context, i.e. in this case, a substrate protein downstream of the target kinase is investigated for its phosphorylation status. For this purpose, the cells incubated with substance are lysed and the total protein separated on a reducing polyacrylamide gel. The proteins are then transferred to a PVDF membrane by means of Western Blotting and the substrate bands sought are made visible with specific antibodies and a suitable detection method. The substrate proteins downstream of the target kinases are detected simultaneously with a respectively special anti-phospho-antibody and at the same time a total antibody which recognizes the substrate total protein. This simultaneous measurement can be made using the duplex technology of the ODYSSEY imagers (LiCOR). The intensity of the total substrate bands is used for normalising or quantifying the phosphorylation inhibition or activation.
(§8) Suitable tumour cell lines (e.g. BxPC3, Hct116 or MDA MB468) were injected into six-well microtitre plates in a defined cell number (e.g. 350 000 cells/well for BxPC3 and Hct116) in the respective standard complete medium and then incubated overnight at 37° C., 5% CO2 and 95% air humidity. The cells were then incubated for a further 24 h under serum-reduced conditions i.e. in the respective medium but with only 0.25% serum. The test substances were prepared as stock solutions (10 mM) in DMSO and incubated with the cells in final concentrations of 5, 15.8 and 50 μM for 5 h. This was followed by cell lysis in 25 mM Tris, 150 mM NaCl, 10 mM Na-pyrophosphate, 2 mM EGTA, 25 mM β-glycerophosphate, 25 mM NaF, 10% glycerine, 0.75% NP-40, 100 μM NaVO4 buffer. Following protein quantification by means of BCA (bicinchonic acid protein assay kit, Sigma) Assay, protein quantities of about 20 μg per track were separated on a Lämmli polyacrylamide gel and then transferred to a PVDF membrane (Millipore) by means of Semi-Dry Western-Blotting at 0.8 mA/cm^2 for 1 h. This was followed by pre-hybridisation of the membrane for 1 hour in I-block reagent (Applied Biosystems) and incubation overnight with the specific antibodies. To determine the Erk and PI3K inhibition, the respectively downstream substrates Rsk1 were detected with the total antibody (Rsk #sc-231g C-21, Santa Cruz) and the phospho-antibody (Phospho-p90RSK (S380) #9341, NEB Cell Signalling) and Akt was detected with the total antibody (Akt1 #sc-1618 C-20, Santa Cruz) and the phospho-antibody (Phospho-Akt (Ser 473) #9271, NEB Cell Signaling). After washing the membrane, secondary antibody incubation was carried out with anti-rabbit IR Dye 800 (#611-732-127, Rockland) for the phospho-antibody and anti-goat Alexa Fluor 680 (#A-21081, Molecular Probes) for the total protein-antibody. After incubating for 30 min at room temperature in the dark, the hybridisation of the detection antibody on the membrane was detected by scanning in the ODYSSEY imager (LiCOR).
(§9) The reduction of the fluorescence intensity of the phospho-substrate bands (pRsk and pAkt) is given in the table below as % inhibition and relates to the following formula:
(§10) The band intensity (fluorescence intensity) of the respective non-inhibited (without substance) phospho-substrates was used as 100% control.

The test system of another test is PI3K → pAkt. Description: Cellular substrate phosphorylation (Western Blotting), PI3K substrate pAkt. It is filed as cell-based. The protocol:
as §7, §8, §9, §10

For test [1], the system named is tumour cell lines (BxPC3, Hct116, MDA MB468). Nature of the test: XTT assay, anti-proliferative effect on the cell lines used. It is filed as cell-based. To be noted: compared to the Exemplary Embodiments. Here is the method: as §2
The tumour cell lines (ATCC) were injected into 96-well microtitre plates in a defined cell number (5000 cells/well for BxPC3 and Hct116; 10000 cells/well for MDA MB468) and then incubated overnight in an incubator at 37° C., 5% CO2 and 95% air humidity. […]
For the detection reaction the substrate XTT was mixed with PMS (N-Methyl dibenzopyrazine methylsulfate, Sigma) and added to the cells so that a final concentration of 325 μg XTT/ml and 2.5 μg PMS/ml was obtained. […] The formazan salt formed by the cellular dehydrogenases could then be quantified by adsorption at 490 nm.
as §5
Eight determinations were made for each control and two for the substance samples. […] The EC50 values were determined using GraphPadPrism.

pEC50, pIC50: −log10 of the molar value.

The text below walks through data of patent publication US8937068B2, “Pyridopyrazine derivatives and their use” (Zentaris GmbH, priority 2005, dated 2015).

Chain of p38alpha (Q16539 whole entry): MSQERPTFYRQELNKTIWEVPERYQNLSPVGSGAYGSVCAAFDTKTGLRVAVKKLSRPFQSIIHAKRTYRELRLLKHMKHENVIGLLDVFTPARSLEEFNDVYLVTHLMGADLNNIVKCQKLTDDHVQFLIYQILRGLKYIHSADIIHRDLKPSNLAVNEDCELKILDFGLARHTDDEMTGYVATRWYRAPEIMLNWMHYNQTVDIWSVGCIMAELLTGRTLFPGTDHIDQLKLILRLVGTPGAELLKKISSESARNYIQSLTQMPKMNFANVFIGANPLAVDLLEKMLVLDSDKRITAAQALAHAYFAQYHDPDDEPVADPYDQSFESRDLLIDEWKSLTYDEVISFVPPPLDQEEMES
Chain of PI3Kalpha (P42336 whole entry): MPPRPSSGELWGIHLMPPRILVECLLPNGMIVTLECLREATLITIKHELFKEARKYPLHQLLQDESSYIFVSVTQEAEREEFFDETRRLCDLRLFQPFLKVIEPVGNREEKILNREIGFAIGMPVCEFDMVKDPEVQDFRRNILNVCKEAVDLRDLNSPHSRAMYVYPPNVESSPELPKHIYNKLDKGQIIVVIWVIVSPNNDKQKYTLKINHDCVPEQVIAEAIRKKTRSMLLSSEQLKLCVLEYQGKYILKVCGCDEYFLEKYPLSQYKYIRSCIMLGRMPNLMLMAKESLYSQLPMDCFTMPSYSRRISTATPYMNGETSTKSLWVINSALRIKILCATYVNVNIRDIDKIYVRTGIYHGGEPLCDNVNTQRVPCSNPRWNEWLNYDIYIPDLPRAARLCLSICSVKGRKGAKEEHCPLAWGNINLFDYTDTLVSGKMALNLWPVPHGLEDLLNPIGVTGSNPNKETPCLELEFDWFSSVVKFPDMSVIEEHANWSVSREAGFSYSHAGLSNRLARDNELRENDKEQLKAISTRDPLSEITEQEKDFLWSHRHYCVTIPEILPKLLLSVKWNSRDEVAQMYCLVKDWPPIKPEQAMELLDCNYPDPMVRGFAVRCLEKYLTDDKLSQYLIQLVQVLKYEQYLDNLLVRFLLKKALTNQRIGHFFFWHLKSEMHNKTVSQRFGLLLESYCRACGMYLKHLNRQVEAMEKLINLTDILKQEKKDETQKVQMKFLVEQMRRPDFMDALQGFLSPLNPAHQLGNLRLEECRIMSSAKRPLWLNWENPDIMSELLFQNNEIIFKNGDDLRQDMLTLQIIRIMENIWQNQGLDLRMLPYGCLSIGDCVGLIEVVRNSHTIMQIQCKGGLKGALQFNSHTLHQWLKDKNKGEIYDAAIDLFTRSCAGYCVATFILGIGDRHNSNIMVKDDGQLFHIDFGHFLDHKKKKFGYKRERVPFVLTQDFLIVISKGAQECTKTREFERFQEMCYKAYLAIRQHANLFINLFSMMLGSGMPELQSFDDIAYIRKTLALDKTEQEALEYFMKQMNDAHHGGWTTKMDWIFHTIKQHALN
Chain of PI3Kalpha (P27986 whole entry partner): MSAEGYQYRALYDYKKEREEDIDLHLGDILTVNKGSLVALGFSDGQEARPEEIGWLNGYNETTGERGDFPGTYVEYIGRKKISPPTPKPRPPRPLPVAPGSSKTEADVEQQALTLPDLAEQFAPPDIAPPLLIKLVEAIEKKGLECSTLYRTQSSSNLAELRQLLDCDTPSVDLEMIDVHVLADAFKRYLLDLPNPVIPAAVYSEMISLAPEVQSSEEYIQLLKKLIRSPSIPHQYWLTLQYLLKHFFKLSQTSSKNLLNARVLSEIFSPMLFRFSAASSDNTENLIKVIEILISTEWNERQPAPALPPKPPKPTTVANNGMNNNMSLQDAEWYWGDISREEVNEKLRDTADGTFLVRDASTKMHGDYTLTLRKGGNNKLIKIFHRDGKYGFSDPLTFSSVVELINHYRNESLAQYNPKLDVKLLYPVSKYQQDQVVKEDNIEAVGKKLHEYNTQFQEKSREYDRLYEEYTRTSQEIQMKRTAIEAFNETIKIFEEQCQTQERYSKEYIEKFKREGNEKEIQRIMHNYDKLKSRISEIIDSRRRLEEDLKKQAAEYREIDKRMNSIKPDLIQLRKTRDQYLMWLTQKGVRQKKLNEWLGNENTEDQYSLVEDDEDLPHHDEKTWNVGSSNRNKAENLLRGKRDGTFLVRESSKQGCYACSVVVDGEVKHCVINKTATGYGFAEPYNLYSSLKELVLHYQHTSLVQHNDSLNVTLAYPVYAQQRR
Chain of Erk2 (P28482 2-360 limits assumed): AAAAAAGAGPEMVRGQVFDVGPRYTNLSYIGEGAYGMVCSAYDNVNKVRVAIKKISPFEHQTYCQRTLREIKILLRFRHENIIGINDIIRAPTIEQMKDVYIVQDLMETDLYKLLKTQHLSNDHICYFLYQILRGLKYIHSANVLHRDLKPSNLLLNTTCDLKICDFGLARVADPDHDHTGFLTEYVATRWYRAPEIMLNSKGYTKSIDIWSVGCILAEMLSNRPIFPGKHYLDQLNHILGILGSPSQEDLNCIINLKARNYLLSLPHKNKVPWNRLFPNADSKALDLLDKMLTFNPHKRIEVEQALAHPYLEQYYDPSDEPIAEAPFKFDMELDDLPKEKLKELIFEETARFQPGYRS

For `CCNC(=O)Nc1ccc2ncc(-c3cc(Cl)c(O)c(OC)c3)nc2n1` [Compound 156, 1-[3-(3-Chloro-4-hydroxy-5-methoxy-phenyl)-pyrido[2,3-b]pyrazin-6-yl]-3-ethyl-urea], the pIC50 was 6.86 at Erk2, 6.37 against PI3Kalpha, under 4.00 on p38alpha and 5.68 with Jnk1 + Jnk2. The results for the pEC50 in the test on BxPC3, with MDA-MB468 and in the test on Hct116 were 5.05, 4.82 and 5.85, respectively.

Consider `CCNC(=O)Nc1ccc2ncc(Nc3cccc(C)c3)nc2n1` [Compound 157, 1-Ethyl-3-(3-m-tolylamino-pyrido-[2,3-b]pyrazin-6-yl)-urea], for which the pIC50 against Erk2 was under 4.00; against PI3Kalpha, 6.46; on p38alpha, under 4.00; with Jnk1 + Jnk2, 4.55. In addition, the figures for the pEC50 in the test with BxPC3, in the test on MDA-MB468 and in the test with Hct116 were under 4.60, 5.46 and 5.36, respectively.

For `CCNC(=O)Nc1ccc2ncc(Nc3ccc(O)cc3)nc2n1` [Compound 164, 1-Ethyl-3-[3-(4-hydroxy-phenylamino)-pyrido[2,3-b]pyrazin-6-yl]-urea], the pIC50 was 4.71 on Erk2, 6.35 on PI3Kalpha, under 4.00 against p38alpha and 4.61 in the test with Jnk1 + Jnk2. Moreover, the results for the pEC50 in the test with BxPC3, with MDA-MB468 and with Hct116 were under 4.30, 5.28 and under 4.60, respectively.

`O=c1cc(N2CCOCC2)oc2c(-c3ccccc3)cccc12` [Ly294002, reference compound]: the figures for the pEC50 in the test on BxPC3, in the test with MDA-MB468 and in the test with Hct116 were 4.60, 4.70 and 4.77, respectively. The inhibition at 50 µM came out at 0% with Erk → pRsk (50 μM, 5 h) and 40% with PI3K → pAkt (50 μM, 5 h). In addition, the “Erk inhibition / inhibition of the Erk substrate p-Rsk (in words)” value in the test on Erk → pRsk (Western Blotting) was “no Erk inhibition”. Besides, the “PI3K inhibition / inhibition of the PI3K substrate p-Akt (in words)” value in the test on PI3K → pAkt (Western Blotting) is “only weak PI3K inhibition”. Besides, the “anti-proliferative effects on the cell lines used (in words)” value in test [1] was “weak anti-proliferative effects”.
